Results taken from publication PMC8402547, “In Vitro and In Vivo Analysis of Ochratoxin A-Derived Glucuronides and Mercapturic Acids as Biomarkers of Exposure” (Toxins, 2021).

Tests used:
[1] = In vitro incubation of OTA with liver S9 in the presence of GSH or NAC; assay type: in vitro ADME, rabbit; conditions: for Time-dependent formation from OTA: rabbit liver S9, with NADPH regenerating system, GSH or NAC 5 mM, t = 0, 60, 120 min; for Formation from OTA in the absence of the NADPH regenerating system: rabbit liver S9, no NADPH regenerating system
Procedure: (§1) Liver S9 fractions from rats (Sprague-Dawley, male, 97 donors, 20 mg/mL) and humans (mixed genders, 50 donors, 20 mg/mL) were obtained from XenoTech (Kansas City, USA). S9 fractions from Goettingen® minipigs and rabbits were prepared in-house based on a modified protocol from Hubbard et al. (1985). Rabbit liver (Blue Vienna x German Giant, female) was obtained from ImmonuGlobe (Himmelstadt, Germany), whereas minipig liver (Goettingen® minipig, male, 42.4 kg bw) was obtained from the University Goettingen, Department of Animal Science.
(§2) For analysis of OTA-derived GSH and NAC conjugates, liver S9 fractions (4 mg/mL) of rats, rabbits, minipigs and humans were incubated with OTA (0.1 mM), GSH or NAC (5 mM) and an NADPH regenerating system (NADP (5 mM), glucose-6-phosphate (5 mM), glucose-6-phosphate-dehydrogenase (1.25 units/mL)) in 100 mM phosphate-buffered saline (pH 7.4) in a total volume of 300 µL at 37 °C for two hours. Control incubations were carried out a) in the absence of GSH/NAC and b) in the absence of the NADPH regenerating system. Aliquots (100 µL) were removed immediately (t = 0) as well as after 60 (t = 60) and 120 (t = 120) minutes, and the enzymatic reaction was stopped by addition of 200 µL ACN and centrifugation (20 min, 4 °C, 20,000× g). The supernatants were removed and stored at −80 °C until further analysis.
(§3) LC–MS/MS analyses were performed on an Agilent 1100 series LC coupled to an API 2000/Q-Trap mass spectrometer (Applied Biosystems/MDS Sciex, Concord, Canada). Samples were injected into the LC–MS/MS system through an Agilent 1100 series autosampler. Separations were carried out on a ReproSil-Pur C18 AQ column (2 mm × 150 mm, 5 µm; Dr. Maisch; Ammerbuch, Germany). Gradient elution of OTA-derived metabolites was carried out with water + 0.1% formic acid (solvent A) and acetonitrile (solvent B). Initially, solvent A was held isocratic for 5 min at 100%, followed by a linear gradient to 95% B in 5 min. These conditions were held for further 5 min. Within 1 min, the gradient decreased linearly to 0% B and remained at initial conditions until the end of analysis (30 min). A flow rate of 0.2 mL/min was used. For each run, 10 µL of the respective sample were injected by the autosampler.
(§4) The API 2000/Q-Trap mass spectrometer was operated with a Turbo Ion Spray source in negative ion mode with a voltage of −4000 V. Spectral data were recorded with N2 as the heater gas at 450 °C and as the collision gas (CAD = −2) in multiple reaction monitoring mode (MRM).
(§5) In addition to MRM, constant neutral loss of 129 amu in the negative ion mode based on the characteristic fragmentation pattern of mercapturic acids was used to screen for N-acetyl-cysteine conjugates of OTA. Furthermore, constant neutral loss of 176 amu in positive ion mode based on the fragmentation pattern of glucuronic acid conjugates was used to screen for OTA glucuronides.

[2] = as above; assay type: in vitro ADME, minipig; conditions: for Time-dependent formation from OTA: minipig liver S9, with NADPH regenerating system, GSH or NAC 5 mM, t = 0, 60, 120 min; for Formation from OTA in the absence of the NADPH regenerating system: minipig liver S9, no NADPH regenerating system
Procedure: as §1, §2, §3, §4, §5

[3] = as above; assay type: in vitro ADME, human; conditions: for Time-dependent formation from OTA: human liver S9, with NADPH regenerating system, GSH or NAC 5 mM, t = 0, 60, 120 min
Procedure: as §1, §2, §3, §4, §5

[4] = Direct LC–MS/MS analysis of OTA metabolites in urine of OTA-treated rats; assay type: in vivo, male F344/N rats; conditions: OTA up to 2 mg/kg bw, negative ionization mode
Procedure: Archived urine samples from previous repeated dose oral toxicity studies on OTA in male F344/N rats were used. The studies were performed according to national animal welfare regulations after authorization by the local authorities (Regierung von Unterfranken, AZ 621-2531.01-9/98 and AZ 54-2531.01-59/05).
14-day study: Male F344 rats (170–190 g) were purchased from Charles-River Laboratories, Sulzfeld, Germany. Animals had free access to water and standard diet (Altromin) and were kept under standard conditions (12 h day/night cycle, temperature 21–23 °C, humidity 45–55%). Rats were transferred to metabolic cages (Tecniplast Metabolic Cage—Rats Over 300 g; Tecniplast, Italy) for collection of urine 3 days prior to dosing. Animals were administered OTA dissolved in corn oil by oral gavage at 0, 0.25, 0.5, 1.0 and 2.0 mg/kg bw for 2 weeks (5 days per week). Urine was collected every 12 h on day 1 of treatment and every 24 h thereafter on ice, aliquoted and stored at −20 °C until further analysis.
90-day study: Male F344/N rats (6–7 weeks old) were purchased from Harlan-Winkelmann, Borchen, Germany. Animals were housed in groups of 5 in Macrolon type-4 cages and allowed free access to pelleted standard rat maintenance diet (SSNIFF, Soest, Germany) and tap water. After a week of acclimatization, rats (n = 5/dose) were exposed to OTA dissolved in corn oil by oral gavage at doses of 0, 21, 70 or 210 µg/kg bw for 2, 4 or 13 weeks (5 days per week). For urine collection, animals were transferred into metabolic cages (Tecniplast Metabolic Cage—Rats Over 300 g; Tecniplast, Italy) 48 h prior to necropsy and fasted for 20 h but allowed free access to tap water. Urine was collected for 24 h on ice, aliquoted and stored at −20 °C until further analysis.
Urine samples were diluted with acetonitrile (2:1), vortexed and cleared via centrifugation (4 °C, 15 min., 2000× g) to precipitate proteins. Of the resulting supernatant, 10 µL were injected into the LC–MS system and analyzed using the method described below.
as §3, §4, §5

[5] = In vitro incubation of OTA with liver S9 in the presence of GSH or NAC; assay type: in vitro ADME, rat; conditions: for Time-dependent formation from OTA: rat liver S9, with NADPH regenerating system, GSH or NAC 5 mM, t = 0, 60, 120 min; for Formation from OTA in the absence of the NADPH regenerating system: rat liver S9, no NADPH regenerating system
Procedure: as §1, §2, §3, §4, §5

Row | SMILES | Time-dependent formation from OTA [1] | Time-dependent formation from OTA [2] | Time-dependent formation from OTA [3] | Detection in urine of OTA-treated rats by direct LC–MS/MS (MRM) [4] | Time-dependent formation from OTA [5] | Formation from OTA in the absence of the NADPH regenerating system [1] | Formation from OTA in the absence of the NADPH regenerating system [2] | Formation from OTA in the absence of the NADPH regenerating system [5] | Formation from OTA in the absence of the NADPH regenerating system ([3]; human liver S9, no NADPH regenerating system)
1 | CC(=O)NC(CSc1c(O)c2c(c(O)c1C(=O)N[C@@H](Cc1ccccc1)C(=O)O)C(=O)O[C@H](C)C2)C(=O)O (stereo partly drawn) [OTHQ-NAC] | not evident | not evident | not evident | not detected | not evident |  |  |  | 
2 | C[C@@H]1Cc2c(O)cc(C(=O)N[C@@H](Cc3ccccc3)C(=O)O)c(O)c2C(=O)O1 [OTHQ] | not observed | not observed | not observed | not detected | not observed |  |  |  | 
3 | C[C@H]1OC(=O)c2c(ccc(C(=O)N[C@@H](Cc3ccccc3)C(=O)O)c2O)[C@H]1O [4-hydroxy-OTB] | not observed | not observed | not observed |  | not observed |  |  |  | 
4 | C[C@@H]1Cc2c(O)c(SC[C@H](NC(=O)CC[C@H](N)C(=O)O)C(=O)NCC(=O)O)c(C(=O)N[C@@H](Cc3ccccc3)C(=O)O)c(O)c2C(=O)O1 [OTHQ-GSH] | not evident | not evident | not evident |  | not evident | detected | detected | detected | 
5 | C[C@@H](O)Cc1c(Cl)cc(C(=O)N[C@@H](Cc2ccccc2)C(=O)O)c(O)c1C(=O)O [OP-OTA] |  | observed |  | traces | observed | not formed | not formed | not formed | not formed
6 | CC(=O)NC(CSc1cc(C(=O)N[C@@H](Cc2ccccc2)C(=O)O)c(O)c2c1C[C@@H](C)OC2=O)C(=O)O (stereo partly drawn) [OTB-NAC] | not evident | not evident | not evident | did not confirm the presence | not evident |  |  |  | 
7 | C[C@@H]1Cc2c(Cl)cc(C(=O)O)c(O)c2C(=O)O1 [OTalpha] |  |  |  | consistently found |  |  |  |  | 
8 | C[C@@H]1Cc2c(SC[C@H](NC(=O)CC[C@H](N)C(=O)O)C(=O)NCC(=O)O)cc(C(=O)N[C@@H](Cc3ccccc3)C(=O)O)c(O)c2C(=O)O1 [OTB-GSH] | not evident | not evident | not evident |  | not evident |  |  |  | 
9 | C[C@@H]1Cc2ccc(C(=O)N[C@@H](Cc3ccccc3)C(=O)O)c(O)c2C(=O)O1 [OTB] | no time-dependent increase | no time-dependent increase | no time-dependent increase |  | no time-dependent increase |  |  |  | 
